Values quoted from earlier work in patent publication US7550593B2, “Process for the preparation of finasteride Form I” (Cipla Limited, priority 2003, dated 2009).

System: serum DHT concentration
Conditions: within 24 hours of oral dosing with a 1 mg tablet

## CC(C)(C)NC(=O)[C@H]1CC[C@H]2[C@@H]3CC[C@H]4NC(=O)C=C[C@]4(C)[C@H]3CC[C@]12C [Finasteride, 17β-(N-t-butylcarbamoyl)-4-aza-5-alpha-androst-1-ene-3-one]
  suppression of serum DHT concentration: 65%
